Source: ChEMBL document CHEMBL1130602 (Bioorg Med Chem Lett, 1998)
pIC50, pKi: −log10 of the molar value.

What was measured:
[1] = target: Serotonin 2 (5-HT2) receptor (Rattus norvegicus, UniProt P30994+P08909+P14842); assay: Compound was evaluated for binding affinity against 5-hydroxytryptamine 2 receptor from rat; format: protein assay
[2] = target: T1, Adrenergic receptor alpha-1 (Rattus norvegicus, UniProt P15823+P23944+P43140); assay: Compound was evaluated for binding affinity against Alpha-1 adrenergic receptor from rat; format: protein assay
T1 sequence (P15823 whole entry): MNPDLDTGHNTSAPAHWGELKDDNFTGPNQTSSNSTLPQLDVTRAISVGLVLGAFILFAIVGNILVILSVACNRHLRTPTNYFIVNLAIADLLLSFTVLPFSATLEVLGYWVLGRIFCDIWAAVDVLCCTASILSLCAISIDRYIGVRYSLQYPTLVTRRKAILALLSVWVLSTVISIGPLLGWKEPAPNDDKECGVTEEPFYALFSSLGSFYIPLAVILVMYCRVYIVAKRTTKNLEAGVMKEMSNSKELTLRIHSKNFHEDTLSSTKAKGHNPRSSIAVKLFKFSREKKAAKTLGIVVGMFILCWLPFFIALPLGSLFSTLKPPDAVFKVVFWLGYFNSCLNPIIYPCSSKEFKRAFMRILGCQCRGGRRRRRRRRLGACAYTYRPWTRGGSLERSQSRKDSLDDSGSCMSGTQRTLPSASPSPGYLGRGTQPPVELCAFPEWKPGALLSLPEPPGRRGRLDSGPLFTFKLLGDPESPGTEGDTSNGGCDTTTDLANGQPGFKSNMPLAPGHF
T1 sequence (P23944 whole entry): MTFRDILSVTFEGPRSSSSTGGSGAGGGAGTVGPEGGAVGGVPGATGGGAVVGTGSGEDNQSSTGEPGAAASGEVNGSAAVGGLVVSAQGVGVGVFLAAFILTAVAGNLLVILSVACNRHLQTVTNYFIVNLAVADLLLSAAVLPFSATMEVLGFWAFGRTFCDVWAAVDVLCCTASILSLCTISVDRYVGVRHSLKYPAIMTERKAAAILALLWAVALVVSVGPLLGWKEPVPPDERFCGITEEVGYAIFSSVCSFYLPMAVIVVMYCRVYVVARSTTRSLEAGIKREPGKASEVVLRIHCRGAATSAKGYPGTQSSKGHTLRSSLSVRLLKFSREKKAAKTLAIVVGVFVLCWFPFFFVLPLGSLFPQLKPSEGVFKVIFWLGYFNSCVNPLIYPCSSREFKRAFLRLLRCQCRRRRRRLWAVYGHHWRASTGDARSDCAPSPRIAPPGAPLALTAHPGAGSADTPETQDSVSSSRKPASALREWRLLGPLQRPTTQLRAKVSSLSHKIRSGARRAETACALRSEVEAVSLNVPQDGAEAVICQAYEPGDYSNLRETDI
T1 sequence (P43140 whole entry): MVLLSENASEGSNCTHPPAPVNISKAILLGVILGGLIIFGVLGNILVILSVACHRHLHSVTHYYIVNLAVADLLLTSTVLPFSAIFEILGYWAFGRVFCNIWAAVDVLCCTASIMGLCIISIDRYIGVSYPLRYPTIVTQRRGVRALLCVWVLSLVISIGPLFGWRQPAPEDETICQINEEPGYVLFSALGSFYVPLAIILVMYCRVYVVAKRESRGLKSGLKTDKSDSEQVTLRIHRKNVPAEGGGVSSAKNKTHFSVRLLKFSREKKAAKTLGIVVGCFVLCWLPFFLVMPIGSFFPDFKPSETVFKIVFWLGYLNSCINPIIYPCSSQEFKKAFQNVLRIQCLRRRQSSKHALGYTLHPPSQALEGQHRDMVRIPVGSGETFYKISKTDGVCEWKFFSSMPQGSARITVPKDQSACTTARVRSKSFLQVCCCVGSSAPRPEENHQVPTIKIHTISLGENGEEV

[3] = target: D(1A) dopamine receptor (Homo sapiens, UniProt P21728); assay: Compound was evaluated for binding affinity against Dopamine receptor D1 transfected in CHO cell membranes
[4] = target: T2, D(4) dopamine receptor (Homo sapiens, UniProt P21917); assay: Compound was evaluated for binding affinity against human Dopamine receptor D4 transfected in CHO cell membranes
T2 sequence (P21917 whole entry): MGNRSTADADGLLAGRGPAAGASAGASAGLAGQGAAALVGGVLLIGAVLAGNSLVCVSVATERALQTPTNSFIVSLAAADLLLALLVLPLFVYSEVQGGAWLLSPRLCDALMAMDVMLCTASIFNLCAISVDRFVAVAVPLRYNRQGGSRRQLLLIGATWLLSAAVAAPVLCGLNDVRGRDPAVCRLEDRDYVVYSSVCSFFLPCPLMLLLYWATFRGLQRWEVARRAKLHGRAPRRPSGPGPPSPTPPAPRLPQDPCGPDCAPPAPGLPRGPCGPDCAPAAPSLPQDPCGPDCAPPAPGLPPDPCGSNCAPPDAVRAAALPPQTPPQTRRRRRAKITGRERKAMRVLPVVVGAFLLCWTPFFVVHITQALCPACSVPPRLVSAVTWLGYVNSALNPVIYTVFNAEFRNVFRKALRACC

[5] = target: D(1B) dopamine receptor (Homo sapiens, UniProt P21918); assay: Compound was evaluated for binding affinity against human Dopamine receptor D5 transfected in CHO cell membranes
[6] = tested on: CHO-hD3; assay: (§1) Compound was tested for stimulation of mitogenesis in CHO.hD3 cells in a dose dependent manner; format: functional, cell-based; details: Cricetulus griseus
[7] = target: D(2) dopamine receptor (Homo sapiens) (UniProt P14416); assay: Selectivity ratio of Ki of D2 receptor to that of D3 receptor
[8] = target: D(3) dopamine receptor (Homo sapiens, UniProt P35462); assay: Compound was evaluated for binding affinity against human Dopamine receptor D3 transfected in CHO cell membranes to stimulate [3H]thymidine uptake
[9] = tested on: CHO; assay: as §1; format: functional, cell-based; details: Cricetulus griseus
[10] = target: T2, D(4) dopamine receptor; assay: Affinity against D4 receptor was evaluated

Sequence of D(1B) dopamine receptor (P21918 whole entry): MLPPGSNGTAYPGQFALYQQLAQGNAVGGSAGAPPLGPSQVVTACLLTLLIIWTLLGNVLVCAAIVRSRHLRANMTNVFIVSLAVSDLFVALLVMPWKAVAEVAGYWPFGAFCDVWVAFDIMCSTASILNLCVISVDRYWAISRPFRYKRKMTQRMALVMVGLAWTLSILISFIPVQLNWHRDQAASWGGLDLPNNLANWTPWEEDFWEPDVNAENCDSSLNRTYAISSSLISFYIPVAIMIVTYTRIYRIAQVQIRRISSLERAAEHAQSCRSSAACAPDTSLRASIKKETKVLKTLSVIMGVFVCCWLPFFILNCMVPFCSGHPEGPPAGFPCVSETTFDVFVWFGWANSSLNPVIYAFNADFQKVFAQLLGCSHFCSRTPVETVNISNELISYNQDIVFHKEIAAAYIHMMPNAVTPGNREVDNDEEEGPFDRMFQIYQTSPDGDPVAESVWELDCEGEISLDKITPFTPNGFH
Sequence of D(1A) dopamine receptor (P21728 whole entry): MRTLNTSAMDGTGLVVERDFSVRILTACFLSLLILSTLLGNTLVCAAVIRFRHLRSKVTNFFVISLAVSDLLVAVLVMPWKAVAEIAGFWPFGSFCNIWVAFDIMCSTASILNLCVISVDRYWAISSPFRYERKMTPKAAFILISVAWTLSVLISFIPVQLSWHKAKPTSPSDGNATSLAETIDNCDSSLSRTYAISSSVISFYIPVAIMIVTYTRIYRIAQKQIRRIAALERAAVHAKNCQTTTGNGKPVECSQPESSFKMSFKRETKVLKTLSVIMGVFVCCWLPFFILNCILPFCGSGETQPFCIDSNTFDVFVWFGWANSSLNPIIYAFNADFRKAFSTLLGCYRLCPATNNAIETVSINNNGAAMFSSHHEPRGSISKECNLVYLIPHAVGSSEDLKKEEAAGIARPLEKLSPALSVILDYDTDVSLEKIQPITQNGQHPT
Sequence of D(2) dopamine receptor (Homo sapiens) (P14416 whole entry): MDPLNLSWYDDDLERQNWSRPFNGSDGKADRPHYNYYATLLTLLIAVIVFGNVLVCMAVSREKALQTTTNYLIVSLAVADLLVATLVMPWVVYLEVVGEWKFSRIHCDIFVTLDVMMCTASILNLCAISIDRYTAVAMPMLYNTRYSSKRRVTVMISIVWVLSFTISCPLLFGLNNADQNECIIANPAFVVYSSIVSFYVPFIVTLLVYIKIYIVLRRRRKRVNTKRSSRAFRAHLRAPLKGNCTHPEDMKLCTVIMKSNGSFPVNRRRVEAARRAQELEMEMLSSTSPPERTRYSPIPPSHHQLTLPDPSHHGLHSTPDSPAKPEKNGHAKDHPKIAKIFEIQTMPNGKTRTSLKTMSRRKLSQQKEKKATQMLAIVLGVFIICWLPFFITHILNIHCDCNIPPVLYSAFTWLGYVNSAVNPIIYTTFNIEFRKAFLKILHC
Sequence of D(3) dopamine receptor (P35462 whole entry): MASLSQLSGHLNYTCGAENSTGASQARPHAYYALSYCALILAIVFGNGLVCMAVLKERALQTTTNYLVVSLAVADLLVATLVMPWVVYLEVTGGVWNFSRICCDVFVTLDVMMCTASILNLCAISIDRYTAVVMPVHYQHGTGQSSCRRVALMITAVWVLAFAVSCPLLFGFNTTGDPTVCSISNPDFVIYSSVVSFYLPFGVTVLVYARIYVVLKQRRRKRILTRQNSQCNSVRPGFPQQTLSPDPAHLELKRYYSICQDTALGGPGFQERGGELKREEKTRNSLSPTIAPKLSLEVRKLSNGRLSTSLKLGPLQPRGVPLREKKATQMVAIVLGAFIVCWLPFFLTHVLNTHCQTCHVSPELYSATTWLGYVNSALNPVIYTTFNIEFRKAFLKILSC

| Structure (SMILES) | Ki [1] | Ki [2] | pKi [3] | pKi [4] | pKi [5] | pIC50 [6] | other results |
| --- | --- | --- | --- | --- | --- | --- | --- |
| O=C(NCCCCN1CCN(c2cccc(Cl)c2Cl)CC1)c1ccc2c(c1)Cc1ccccc1-2 | 223 nM | 642 nM | < 5.00 | < 5.30 | < 5.00 | 8.30 | – |
| CCCCN1CCCC1CNC(=O)c1cc(C#N)c2ccccc2c1OC (stereo unspecified) | – | – | – | – | – | – | Ratio [7]: 10 |
| O=C(CCCN1CCC(O)(c2ccc(Cl)cc2)CC1)c1ccc(F)cc1 [HALOPERIDOL] | – | – | – | – | – | 8.06 | – |
| O=C(NCCCCN1CCN(c2cccc(Cl)c2Cl)CC1)c1ccc2c(c1)-c1ccccc1-2 | 125 nM | 547 nM | < 5.00 | < 5.30 | < 5.00 | – | pKi [8]: 9.05; pIC50 [9]: 8.17 |
| COc1c(C(=O)NCCN2CCN(c3cccc(Cl)c3Cl)CC2)cc(Br)c2ccccc12 | – | – | – | – | – | – | pKi [10]: 7.19 |
